# How the values were obtained:
# T47D cells = experiment: TUNEL apoptosis assay, T47D; assay type: cell-based, human; settings: 5 μM; 6 days; control about 1.5%
# Description: (§1) The cells were rinsed with PBS and then the stained-labelled apoptotic cells were mounted using DAPI (diamidino-2-phenylindole 2HCl)-glycerol and visualised with a fluorescent microscope using two filters (1) for TUNEL stained cells, and (2) for DAPI stained cells, which represents all the cells (nuclei). Fluorescent microscope model was Nikon, Eclipse E400 and the software was SPOT advanced version 3.5.5 by Diagnostic Instruments Inc. (Sterling Heights, MI, USA).
# (§2) Figure 6 Graphs showing apoptosis induced in (A) MCF-7 and (B) T47D cells as determined by TUNEL. […] TUNEL-stained apoptotic cells were counted against the DAPI stained cells to obtain percentage apoptosis. The experiments were repeated thrice with similar results. Error bars show s.e.m of three different fields of treated cells, statistically significant ^*P<0.01 and ^**P<0.001 vs control.
# MCF-7 cells = experiment: TUNEL apoptosis assay, MCF-7; assay type: cell-based, human; settings: 5 μM; 6 days; control about 1.5%
# Description: as §1, §2
# PARP = experiment: Western immunoblotting for cleaved PARP in T47D cells; assay type: cell-based, human; settings: 6 days
# Description: (§3) At the end of the treatment, cells were scrapped and collected by washing with ice-cold PBS in a centrifuge tube. Cells were centrifuged at 2500 r.p.m. for 10 min, the pellet was again washed with ice-cold PBS and centrifuged. The cell pellet was then suspended in chilled cell lysis buffer (0.1 M Tris–HCl, 0.5% Triton X-100, protease inhibitor cocktail) and sonicated on ice for 10–15 s. The homogenate was kept on ice for 30 min and then centrifuged at 13 000 r.p.m. for 30 min. The supernatant was used as cell lysate. The cell lysates were stored at −80°C. Protein concentration of the cell lysates was determined using Bio-Rad protein assay reagents.
# (§4) Protein lysates from MCF-7 and T47D cells were subjected to sodium dodecyl sulphate–polyacrylamide gel electrophoresis (SDS–PAGE) and immunoblotted for different proteins. […] Immunoreactive bands were visualised using the enhanced chemiluminescence detection reagents and analysis system (Amersham Bioscences) according to the manufacturer's instructions and quantified by densitometry using ImageQuant software version 5.
# Figure 7 (A) Western immunoblotting of whole-cell lysates of treated MCF-7 and T47D cells for the expression of Bad. […] Numbers below the blot show fold increase in expression of the protein as analysed by ImageQuant densitometry analysis. […]
# MDA-MB-231 cells = test system: MDA-MB-231 cells; design: method as in Patel et al. (2004); settings: inhibition of cell proliferation by 50%; ref Patel et al. (2004); read-out: Cellular IC50, MDA-MB-231; cited from earlier work
# cyclin D1 = experiment: Western blotting for cyclin D1 in MCF-7 cells; assay type: cell-based, human; settings: 6 days (4HPR 4 days)
# Description: as §3, §4
# Figure 5 Western blotting of whole-cell lysates of treated MCF-7 and T47D cells for the expression of Cyclin D1. […] Numbers below the blot show fold decrease in expression of the protein as analysed by ImageQuant densitometry analysis. […]
smiles,measurement,setting,value
CC1=C(/C=C/C(C)=C/C=C/C(C)=C\C(=O)Nc2ccc(O)cc2)C(C)(C)CCC1n1ccnc1 (stereo not drawn) [VN/69-1],"Induction of apoptosis (TUNEL), T47D",T47D cells,least effective of the RAMBAs in inducing apoptosis
same,"Induction of apoptosis (TUNEL), MCF-7",MCF-7 cells,least effective of the RAMBAs in inducing apoptosis
CC1=C(/C=C/C(C)=C/C=C/C(C)=C/C(=O)O)C(C)(C)CCC1n1ccnc1 (stereo not drawn) [VN/14-1],Increase in level of cleaved PARP compared with control,PARP; 1 μM,6.3 fold
same,Increase in level of cleaved PARP compared with control,PARP; 5 μM,7.5 fold
CC1=C(/C=C/C(C)=C/C=C/C(C)=C/C(=O)Nc2ccc(O)cc2)C(C)(C)CCC1n1ccnc1 (stereo not drawn) [VN/66-1],IC50,MDA-MB-231 cells,5.62 µM
"CC1=C(/C=C/C(C)=C/C=C/C(C)=C/C(=O)O)C(C)(C)CCC1 [ATRA, all-trans-retinoic acid, reference compound]",Decrease of cyclin D1 protein expression compared with untreated control,cyclin D1,> 80%

# Source: PMC2360155, “Novel retinoic acid metabolism blocking agents have potent inhibitory activities on human breast cancer cells and tumour growth” (British Journal of Cancer, 2007)
